# Measurements: patent publication US10253002B2, “Compounds and methods of treating infections” (Neoculi Pty Ltd., priority 2013, dated 2019)
# Like-named read-outs stand apart in the source and are kept apart here.
# Tests used:
# VRE = test: Broth microdilution MIC, Example 7 (NCL812 and analogues); assay type: cell-based, Enterococcus spp.; conditions: for activity against VRE among analogues: MIC testing, two VRE strains; for VRE: bioassay ranking
# In short: (§1)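 Values are MICs in μg/ml from broth microdilution per CLSI, with growth scored against a drug-free well.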
# [1] = Bioassay ranking of the analogues tested; conditions: M + R (MRSA and VRE combined)
# MRSA = test: Broth microdilution MIC, Example 7 (NCL812 and analogues); assay type: cell-based, Staphylococcus aureus; conditions: for activity against MRSA among analogues: MIC testing, two MRSA strains; for MRSA: bioassay ranking
# In short: as §1
# [2] = test system: Staphylococcus pseudintermedius isolates (MSSP and MRSP); test: Disk diffusion and Epsilometer susceptibility testing, Example 6; assay type: cell-based; conditions: for MIC: Staphylococcus pseudintermedius
# S. pneumoniae isolates = test: Disk diffusion susceptibility (CLSI/EUCAST), Example 5; assay type: cell-based, Streptococcus pneumoniae
# Experimental: Isolate susceptibility to 12 different antimicrobials (Table 16) was determined by CLSI and European Committee on Antimicrobial Susceptibility Testing (EUCAST) methods. Antimicrobials were selected based upon the CLSI and EUCAST guidelines. Standardised bacterial suspensions were spread onto MHSBA using a sterile cotton swab. Bacterial suspensions from of Streptococcus pneumoniae were standardised to an OD6O0 between 0.08 and 0.1 using a spectrophotometer and then diluted 1:20. Bacterial colonies were taken from an O/N horse blood agar plate. To ensure the purity of the 1:20 bacterial suspension, 50 μL was spread plated onto horse blood agar and incubated O/N at 37° C. with 5% CO2. The CFU was calculated and compared to the initial plate counts. Antibiotic disks (Purchased from Sigma Aldrich) were placed using a disk dispenser (Purchased from Oxoid) according to CLSI standards. MHSBA plates were incubated for 16 h-24 h at 37° C. in 5% CO2. Zones of complete inhibition were measured in triplicate to the nearest millimeter using a ruler on natural light-reflected growth, and the mode was represented as the diameter for each isolate. Pneumococcal isolates were categorised as sensitive, intermediate (I) or resistant (R) by CLSI standards and quality control (QC) ranges (Table 16).
# [3] = test system: S. aureus isolates (HA-MRSA, CA-MRSA, methicillin-susceptible staphylococci); test: Kirby-Bauer disc diffusion resistotyping, Example 4; assay type: cell-based, Staphylococcus aureus
# Experimental: Antibiotic-susceptibility profiling of the isolate collection was undertaken using Kirby-Bauer disc diffusion, as recommended by the Clinical and Laboratory Standards Institute (CLSI) on Mueller-Hinton agar. Isolates were grown overnight on SBA at 37° C. Colonies were suspended in physiological saline. Turbidity was adjusted to a 0.5 McFarland standard and suspensions were spread over the medium. Antibiotic discs according to Table 9 below were transferred onto the inoculated medium and analysed after 24 h incubation at 37° C.
smiles,measurement,setting,value
CC(C)c1ccc(/C=N/NC(=N)N/N=C/c2ccc(C(C)C)cc2)cc1.Cl [NCL120],activity against VRE among analogues,VRE,greatest activity
same,VRE,VRE,5 µg/mL
same,M + R,[1],6 µg/mL
same,activity against MRSA among analogues,MRSA,greatest activity
same,MRSA,MRSA,7 µg/mL
CCCc1ccc(C=NNC(=N)NN=Cc2ccc(CCC)cc2)cc1.Cl [NCL121],activity against VRE among analogues,VRE,greatest activity
same,VRE,VRE,28 µg/mL
same,M + R,[1],30 µg/mL
same,activity against MRSA among analogues,MRSA,greatest activity
same,MRSA,MRSA,32 µg/mL
Cl.N=C(NN=Cc1ccc(F)c(F)c1)NN=Cc1ccc(F)c(F)c1 [NCL123],activity against VRE among analogues,VRE,greatest activity
same,VRE,VRE,4 µg/mL
same,M + R,[1],9.5 µg/mL
same,activity against MRSA among analogues,MRSA,greatest activity
same,MRSA,MRSA,15 µg/mL
CC(=NNC(=N)NN=C(C)c1ccccc1)c1ccccc1.Cl [NCL143],activity against VRE among analogues,VRE,greatest activity
same,VRE,VRE,8 µg/mL
same,M + R,[1],12 µg/mL
same,activity against MRSA among analogues,MRSA,greatest activity
same,MRSA,MRSA,16 µg/mL
Cl.N=C(NN=Cc1ccc2[nH]ccc2c1)NN=Cc1ccc2[nH]ccc2c1 [NCL146],activity against VRE among analogues,VRE,greatest activity
same,VRE,VRE,16 µg/mL
same,M + R,[1],14 µg/mL
same,activity against MRSA among analogues,MRSA,greatest activity
same,MRSA,MRSA,12 µg/mL
Cc1onc(-c2ccccc2)c1C(=O)N[C@@H]1C(=O)N2[C@@H]1SC(C)(C)[C@@H]2C(=O)O [Oxacillin],"disc diffusion zone, all MRSP isolates resistant",[2]; 13 MRSP isolates,≤ 17 mm
same,MIC,"[2]; 13 MRSP isolates, read-out: E-test MIC, all MRSP isolates resistant",≥ 0.5 µg/mL
same,MIC,"[2]; isolate S1P1, read-out: Etest MIC",> 256 µg/mL
same,MIC,"[2]; isolate S2P2, read-out: Etest MIC",> 256 µg/mL
same,MIC,"[2]; isolate S3P3, read-out: Etest MIC",> 256 µg/mL
same,MIC,"[2]; isolate S4P4, read-out: Etest MIC",2 µg/mL
same,MIC,"[2]; isolate S5P5, read-out: Etest MIC",4 µg/mL
same,MIC,"[2]; isolate S6P6, read-out: Etest MIC",> 256 µg/mL
same,MIC,"[2]; isolate S7P7, read-out: Etest MIC",> 256 µg/mL
same,MIC,"[2]; isolate S8P8, read-out: Etest MIC",> 256 µg/mL
same,MIC,"[2]; isolate S9P9, read-out: Etest MIC",4 µg/mL
same,MIC,"[2]; isolate S10P10, read-out: Etest MIC",> 256 µg/mL
same,MIC,"[2]; isolate S11P11, read-out: Etest MIC",> 256 µg/mL
same,MIC,"[2]; isolate S12P12, read-out: Etest MIC",1.5 µg/mL
same,MIC,"[2]; isolate S13P13, read-out: Etest MIC",0.125 µg/mL
same,MIC,"[2]; isolate S14P14, read-out: Etest MIC",0.25 µg/mL
same,MIC,"[2]; isolate S15P15, read-out: Etest MIC",0.25 µg/mL
same,MIC,"[2]; isolate S16P16, read-out: Etest MIC",0.19 µg/mL
same,MIC,"[2]; isolate S17P17, read-out: Etest MIC",0.25 µg/mL
same,MIC,"[2]; isolate S18P18, read-out: Etest MIC",0.25 µg/mL
same,MIC,"[2]; isolate S19P19, read-out: Etest MIC",0.25 µg/mL
same,MIC,"[2]; isolate S20P20, read-out: Etest MIC",0.25 µg/mL
same,MIC,"[2]; isolate S21P21, read-out: Etest MIC",0.125 µg/mL
same,MIC,"[2]; isolate S22P22, read-out: Etest MIC",0.25 µg/mL
same,MIC,"[2]; isolate S23P23, read-out: Etest MIC",1.5 µg/mL
same,ZD,[2]; isolate S1P1,0 mm
same,"ZD, Adl",[2]; isolate S1P1,0 mm
same,ZD,[2]; isolate S2P2,0 mm
same,"ZD, Adl",[2]; isolate S2P2,0 mm
same,ZD,[2]; isolate S3P3,0 mm
same,"ZD, Adl",[2]; isolate S3P3,0 mm
same,ZD,[2]; isolate S4P4,0 mm
same,"ZD, Adl",[2]; isolate S4P4,0 mm
same,ZD,[2]; isolate S5P5,0 mm
same,"ZD, Adl",[2]; isolate S5P5,0 mm
same,ZD,[2]; isolate S6P6,0 mm
same,"ZD, Adl",[2]; isolate S6P6,0 mm
same,ZD,[2]; isolate S7P7,0 mm
same,"ZD, Adl",[2]; isolate S7P7,0 mm
same,ZD,[2]; isolate S8P8,0 mm
same,"ZD, Adl",[2]; isolate S8P8,0 mm
same,ZD,[2]; isolate S9P9,0 mm
same,"ZD, Adl",[2]; isolate S9P9,0 mm
same,ZD,[2]; isolate S10P10,0 mm
same,"ZD, Adl",[2]; isolate S10P10,0 mm
same,ZD,[2]; isolate S11P11,0 mm
same,"ZD, Adl",[2]; isolate S11P11,0 mm
same,ZD,[2]; isolate S12P12,13 mm
same,"ZD, Adl",[2]; isolate S12P12,16 mm
same,ZD,[2]; isolate S13P13,26 mm
same,"ZD, Adl",[2]; isolate S13P13,36 mm
same,ZD,[2]; isolate S14P14,22 mm
same,"ZD, Adl",[2]; isolate S14P14,29 mm
same,ZD,[2]; isolate S15P15,22 mm
same,"ZD, Adl",[2]; isolate S15P15,25 mm
same,ZD,[2]; isolate S16P16,26 mm
same,"ZD, Adl",[2]; isolate S16P16,34 mm
same,ZD,[2]; isolate S17P17,22 mm
same,"ZD, Adl",[2]; isolate S17P17,26 mm
same,ZD,[2]; isolate S18P18,22 mm
same,"ZD, Adl",[2]; isolate S18P18,30 mm
same,ZD,[2]; isolate S19P19,25 mm
same,"ZD, Adl",[2]; isolate S19P19,32 mm
same,ZD,[2]; isolate S20P20,23 mm
same,"ZD, Adl",[2]; isolate S20P20,30 mm
same,ZD,[2]; isolate S21P21,27 mm
same,"ZD, Adl",[2]; isolate S21P21,37 mm
same,ZD,[2]; isolate S22P22,21 mm
same,"ZD, Adl",[2]; isolate S22P22,26 mm
same,ZD,[2]; isolate S23P23,13 mm
same,"ZD, Adl",[2]; isolate S23P23,14 mm
same,disk diffusion zone diameter,S. pneumoniae isolates; A66.1,28 mm
same,disk diffusion zone diameter,S. pneumoniae isolates; D39,26 mm
same,disk diffusion zone diameter,S. pneumoniae isolates; EF3030,18 mm
same,disk diffusion zone diameter,S. pneumoniae isolates; L82016,29 mm
same,disk diffusion zone diameter,S. pneumoniae isolates; P9,26 mm
same,disk diffusion zone diameter,S. pneumoniae isolates; P21,28 mm
same,disk diffusion zone diameter,S. pneumoniae isolates; TIGR4,26 mm
same,disk diffusion zone diameter,S. pneumoniae isolates; WCH16,30 mm
same,disk diffusion zone diameter,S. pneumoniae isolates; WCH43,26 mm
same,disk diffusion zone diameter,S. pneumoniae isolates; WCH46,27 mm
same,disk diffusion zone diameter,S. pneumoniae isolates; WCH57,32 mm
same,disk diffusion zone diameter,S. pneumoniae isolates; WCH77,28 mm
same,disk diffusion zone diameter,S. pneumoniae isolates; WCH86,34 mm
same,disk diffusion zone diameter,S. pneumoniae isolates; WCH89,29 mm
same,disk diffusion zone diameter,S. pneumoniae isolates; WCH92,25 mm
same,disk diffusion zone diameter,S. pneumoniae isolates; WCH137,29 mm
same,disk diffusion zone diameter,S. pneumoniae isolates; WCH158,28 mm
same,disk diffusion zone diameter,S. pneumoniae isolates; WCH184,11 mm
same,disk diffusion zone diameter,S. pneumoniae isolates; WCH211,25 mm
same,disk diffusion zone diameter,S. pneumoniae isolates; WU2,28 mm
same,isolates resistant (Kirby-Bauer disc diffusion),[3]; CA-MRSA (n = 10),10.00%
same,isolates resistant (Kirby-Bauer disc diffusion),[3]; HA-MRSA (n = 10),80.00%
same,isolates resistant (Kirby-Bauer disc diffusion),[3]; Methicillin-susceptible staphylococci (n = 10),0.00%
same,"resistant isolates, number (percentage)","[3]; Unclassified (n = 2), Overall",2 (100%)
same,Total isolates resistant (Kirby-Bauer disc diffusion),[3]; all isolates (n = 30),30.00%
same,"resistant isolates, number (percentage)","[3]; mec gene complex A (n = 4), Overall",4 (100%)
same,"resistant isolates, number (percentage)","[3]; mec gene complex A (n = 4), SCCmec type II",3 (100%)
same,"resistant isolates, number (percentage)","[3]; mec gene complex A (n = 4), SCCmec type III",1 (100%)
same,"resistant isolates, number (percentage)","[3]; mec gene complex B (n = 10), Overall",2 (20%)
same,"resistant isolates, number (percentage)","[3]; mec gene complex B (n = 10), SCCmec type I",1 (50%)
same,"resistant isolates, number (percentage)","[3]; mec gene complex B (n = 10), SCCmec type IV",1 (12.5%)
same,"resistant isolates, number (percentage)","[3]; mec gene complex C2 (n = 4), Overall",1 (25%)
same,"resistant isolates, number (percentage)","[3]; mec gene complex C2 (n = 4), SCCmec type V",1 (25%)
